Three compounds from patent publication US11535643B2, “Macrolides with modified desosamine sugars and uses thereof” (President and Fellows of Harvard College, priority 2015, dated 2022) can be followed below.

≈ marks a conversion by molar mass, not a printed value. Like-named read-outs stand apart in the source and are kept apart here.

The conditions of data set [1]: from C=CCOC(=O)NC[C@@H]1C[C@H](N(C)C)[C@@H](OC(=O)OC)[C@H](O[C@H]([C@@H](C)C2=C(C)C(=O)OC(C)(C)O2)[C@@](C)(C[C@@H](C)CN[C@H](C)[C@H]2N(CCCCN=[N+]=[N-])C(=O)O[C@]2(C)[C@H](O)CC)OC)O1; ester bond; chlorobenzene; 1.0 mM; 150.0 °C; 16.0 h.
In a further data set the test system is S. aureus. Put plainly: Broth dilution MIC determination (CLSI) against S. aureus strains. The class given is cell-based. Particulars: for MIC: Staphylococcus aureus. The method, boiled down:
(§1)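 Strains, including multidrug-resistant and macrolide-resistant ones, were exposed to macrolides in broth dilution per CLSI standards, and the lowest inhibiting concentration was recorded as MIC. Azithromycin and solithromycin were run alongside.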
(In general: In broth dilution the organism is exposed to a series of concentrations in liquid medium.)

Another data set concerns S. pneumoniae. Put plainly: Broth dilution MIC determination (CLSI) against S. pneumoniae strains. Type of data set: cell-based. As to conditions: for MIC: Streptococcus pneumoniae. The method, boiled down: as §1
A further data set concerns S. pyogenes. Kind of data set: Broth dilution MIC determination (CLSI) against S. pyogenes strains. The class given is cell-based. Particulars: for MIC: Streptococcus pyogenes. The gist of the method: as §1
A further data set deals with E. faecalis. Kind of data set: Broth dilution MIC determination (CLSI) against E. faecalis strains. Type of data set: cell-based. As to conditions: for MIC: Enterococcus faecalis. The method, boiled down: as §1
The test system of another data set is E. coli. Kind of data set: Broth dilution MIC determination (CLSI) against E. coli strains. The class given is cell-based. Particulars: for MIC: Escherichia coli. The method, boiled down: as §1
The test system of a further data set is A. baumannii. Kind of data set: Broth dilution MIC determination (CLSI) against A. baumannii strains. The class given is cell-based. As to conditions: for MIC: Acinetobacter baumannii. The gist of the method:
as §1

For a further data set, the system named is K. pneumoniae. Kind of data set: Broth dilution MIC determination (CLSI) against K. pneumoniae strains. Type of data set: cell-based. As to conditions: for MIC: Klebsiella pneumoniae. The method, boiled down: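 Azithromycin and solithromycin served as controls; MICs were obtained by standard CLSI broth dilution on a strain panel including multidrug-resistant and macrolide-resistant isolates.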

The subject of another data set is P. aeruginosa. Kind of data set: Broth dilution MIC determination (CLSI) against P. aeruginosa strains. The class given is cell-based. Particulars: for MIC: Pseudomonas aeruginosa. The method, boiled down:
as §1

In a further data set the test system is H. influenzae. Put plainly: Broth dilution MIC determination (CLSI) against H. influenzae strains. The class given is cell-based. Particulars: for MIC: Haemophilus influenzae. The gist of the method:
as §1

In data set [1], `C=CCOC(=O)NC[C@@H]1C[C@H](N(C)C)[C@@H](OC(=O)OC)[C@H](O[C@@H]2[C@@H](C)C(=O)[C@@H](C)C(=O)O[C@H](CC)[C@@]3(C)OC(=O)N(CCCCN=[N+]=[N-])[C@@H]3[C@@H](C)NC[C@H](C)C[C@@]2(C)OC)O1` returned a ring closure, yield of all isomers of 70%.

Consider `CCC1OC(=O)C(C)C(=O)C(C)C(OC2OC(Cn3cc(-c4cnc(N)s4)nn3)CC(N(C)C)C2O)C(C)(OC)CC(C)CNC(C)C2N(CCCCn3cc(-c4cccc(N)c4)nn3)C(=O)OC12C` (stereo not shown) [FSM-22373], for which the “MIC S. aureus ATCC29213” value against S. aureus (ATCC29213) was above 32 µg/mL. Besides, the “MIC S. aureus MRSA: USA100” value with S. aureus (MRSA: USA100) was above 32 µg/mL. For the same compound, in the data set on S. aureus (MRSA: USA300), the “MIC S. aureus MRSA: USA300” value is above 32 µg/mL. The “MIC S. aureus USA600, GISA” value against S. aureus (USA600, GISA) is above 32 µg/mL. For the same compound, the “MIC S. aureus erm A genotype” value against S. aureus (erm A genotype) is above 32 µg/mL. In addition, the “MIC S. pneumoniae ATCC49619” value against S. pneumoniae (ATCC49619) was below 0.03125 µg/mL. The “MIC S. pneumoniae erm B + mef A genotype” value in the data set on S. pneumoniae (erm B + mef A genotype) was determined as 32 µg/mL. For the same compound, the “MIC S. pneumoniae erm B + tet(M, O) genotype” value in the data set on S. pneumoniae (erm B + tet(M, O) genotype) is below 0.03125 µg/mL. Also, in the data set on S. pyogenes (ATCC19615), the “MIC S. pyogenes ATCC19615” value was 8 µg/mL (≈ 8.05 µM). In the data set with S. pyogenes (macrolide-resistant), the “MIC S. pyogenes macrolide-resistant” value is above 32 µg/mL. In addition, in the data set with E. faecalis (ATCC29212), the “MIC E. faecalis ATCC29212” value was found to be 32 µg/mL (≈ 32.2 µM). Further, in the data set on E. faecalis (Vancomycin-resistant), the “MIC E. faecalis Vancomycin-resistant” value is above 32 µg/mL. Besides, the “MIC E. coli ATCC25922” value against E. coli (ATCC25922) is above 32 µg/mL. In addition, the “MIC E. coli CTX-M-14” value in the data set with E. coli (CTX-M-14) was above 32 µg/mL. Moreover, the “MIC E. coli NDM-1” value in the data set on E. coli (NDM-1) was above 32 µg/mL. In addition, the “MIC E. coli TEM-1” value with E. coli (TEM-1) was above 32 µg/mL. In the data set on A. baumannii (ATCC19606), the “MIC A. baumannii ATCC19606” value is above 32 µg/mL. In addition, the “MIC A. baumannii IMP-4” value in the data set with A. baumannii (IMP-4) was above 32 µg/mL. For the same compound, the “MIC A. baumannii chromosomal class C” value with A. baumannii (chromosomal class C) was above 32 µg/mL. Besides, the “MIC A. baumannii imipenem-resistant” value with A. baumannii (imipenem-resistant) is above 32 µg/mL. Also, in the data set with K. pneumoniae (ATCC10031), the “MIC K. pneumoniae ATCC10031” value is above 32 µg/mL. In addition, the “MIC K. pneumoniae KPC-2” value with K. pneumoniae (KPC-2) was above 32 µg/mL. Moreover, the “MIC K. pneumoniae SHV-12” value with K. pneumoniae (SHV-12) is above 32 µg/mL. The “MIC K. pneumoniae TEM-10” value against K. pneumoniae (TEM-10) amounted to 32 µg/mL (≈ 32.2 µM). Besides, the “MIC P. aeruginosa ATCC27853” value with P. aeruginosa (ATCC27853) was above 32 µg/mL. The “MIC P. aeruginosa HPA101-1477” value against P. aeruginosa (HPA101-1477) is above 32 µg/mL. For the same compound, the “MIC H. influenzae ATCC49247” value in the data set on H. influenzae (ATCC49247) is above 32 µg/mL. Moreover, the “MIC H. influenzae erythro > 4, azithro 1” value against H. influenzae (erythro > 4, azithro 1) amounted to 16 µg/mL (≈ 16.1 µM).

On to `CC[C@H]1OC(=O)[C@@](C)(F)C(=O)[C@H](C)[C@@H](O[C@@H]2O[C@H](C)C[C@H](N(C)C)[C@H]2O)[C@](C)(OC)C[C@@H](C)C(=O)[C@H](C)[C@H]2N(CCCCn3cc(-c4cccc(N)c4)nn3)C(=O)O[C@]12C` [Solithromycin, solithromycin, reference compound], for which the MIC in the data set with S. aureus (ATCC29213, ATCC29213, read-out: MIC S. aureus ATCC29213) was 0.125 µg/mL (≈ 0.148 µM); in the data set on S. aureus (MRSA / USA100, MRSA: USA100, read-out: MIC S. aureus MRSA: USA100), above 32 µg/mL; in the data set with S. aureus (MRSA / USA300, MRSA: USA300, read-out: MIC S. aureus MRSA: USA300) it was 1 µg/mL (≈ 1.18 µM); in the data set with S. aureus (USA600, USA600, GISA, read-out: MIC S. aureus USA600, GISA), above 32 µg/mL; in the data set on S. aureus (read-out: MIC S. aureus erm A genotype), above 32 µg/mL; in the data set with S. pneumoniae (ATCC49619, ATCC49619, read-out: MIC S. pneumoniae ATCC49619) it was below 0.0312 µg/mL. The MIC in the data set with S. pneumoniae (erm B + mef A genotype, read-out: MIC S. pneumoniae erm B + mef A genotype) was 0.25 µg/mL; in the data set with S. pneumoniae (erm B + tet(M, O) genotype, read-out: MIC S. pneumoniae erm B + tet(M, O) genotype), below 0.0312 µg/mL; in the data set on S. pneumoniae (read-out: MIC S. pneumoniae mef A genotype, mef A genotype), 0.125 µg/mL (≈ 0.148 µM); with S. pyogenes (ATCC19615, ATCC19615, read-out: MIC S. pyogenes ATCC19615) it was below 0.0312 µg/mL; with S. pyogenes (macrolide-resistant, read-out: MIC S. pyogenes macrolide-resistant) it was 0.0625 µg/mL (≈ 0.074 µM); in the data set on E. faecalis (ATCC29212, ATCC29212, read-out: MIC E. faecalis ATCC29212), below 0.0312 µg/mL. Moreover, the MIC in the data set on E. faecalis (Vancomycin-resistant, read-out: MIC E. faecalis Vancomycin-resistant) is 32 µg/mL (≈ 37.9 µM); in the data set on E. coli (ATCC25922, ATCC25922, read-out: MIC E. coli ATCC25922), 32 µg/mL (≈ 37.9 µM); with E. coli (read-out: MIC E. coli CTX-M-14, CTX-M-14) it was above 32 µg/mL; with E. coli (read-out: MIC E. coli NDM-1, NDM-1), above 32 µg/mL; in the data set with E. coli (read-out: MIC E. coli TEM-1, TEM-1) it was 32 µg/mL (≈ 37.9 µM); with A. baumannii (ATCC19606, ATCC19606, read-out: MIC A. baumannii ATCC19606), 8 µg/mL (≈ 9.47 µM). The MIC is above 32 µg/mL in the data set with A. baumannii (IMP-4, read-out: MIC A. baumannii IMP-4); 8 µg/mL (≈ 9.47 µM) with A. baumannii (chromosomal class C, read-out: MIC A. baumannii chromosomal class C); 4 µg/mL (≈ 4.73 µM) in the data set with A. baumannii (imipenem-resistant, read-out: MIC A. baumannii imipenem-resistant); 8 µg/mL (≈ 9.47 µM) in the data set on K. pneumoniae (ATCC10031, ATCC10031, read-out: MIC K. pneumoniae ATCC10031); above 32 µg/mL with K. pneumoniae (KPC-2, read-out: MIC K. pneumoniae KPC-2); above 32 µg/mL with K. pneumoniae (SHV-12, read-out: MIC K. pneumoniae SHV-12). The MIC with K. pneumoniae (TEM-10, read-out: MIC K. pneumoniae TEM-10) is above 32 µg/mL; in the data set on P. aeruginosa (ATCC27853, read-out: MIC P. aeruginosa ATCC27853) it was above 32 µg/mL; with P. aeruginosa (read-out: MIC P. aeruginosa HPA101-1477), above 32 µg/mL; in the data set with H. influenzae (ATCC49247, ATCC49247, read-out: MIC H. influenzae ATCC49247) it was 4 µg/mL (≈ 4.73 µM); in the data set with H. influenzae (erythro > 4, azithro 1, read-out: MIC H. influenzae erythro > 4, azithro 1), 2 µg/mL (≈ 2.37 µM).
